Results: patent publication US9023821B2, “Use of MicroRNA for treating diseases associated with a dysfunction of the cilia in multiciliated epithelial cells” (Centre National de la Recherche Scientifique, priority 2009, dated 2015)

How the values were obtained:
[1] = tested on: human airway epithelial cells (HAECs); test: Agilent miRNA chips, miRNA expression at four stages of differentiation of HAECs; conditions: for Modulation (ratio of the level of intensity of expression in log2 in two stages of differentiation) measured with the Agilent chips, D7 − D0 / Modulation (ratio of the level of intensity of expression in log2 in two stages of differentiation) measured with the Agilent chips, FC − D7 / Modulation (ratio of the level of intensity of expression in log2 in two stages of differentiation) measured with the Agilent chips, WD − D0 / Modulation (ratio of the level of intensity of expression in log2 in two stages of differentiation) measured with the Agilent chips, WD − FC / Level of intensity of expression in log2 measured with the Agilent chips, D0 / Level of intensity of expression in log2 measured with the Agilent chips, D7 / Level of intensity of expression in log2 measured with the Agilent chips, FC / Level of intensity of expression in log2 measured with the Agilent chips, WD: Table VI; for Modulation (ratio of the level of intensity of expression in log2 at two stages of differentiation), FC − D7 / Modulation (ratio of the level of intensity of expression in log2 at two stages of differentiation), WD − FC: Agilent miRNA chips, Table V; for Level of intensity of expression in log2 measured with the Agilent chips, D0: stage D0; for Level of intensity of expression in log2 measured with the Agilent chips, D7: stage D7; for Level of intensity of expression in log2 measured with the Agilent chips, FC: stage FC; for Level of intensity of expression in log2 measured with the Agilent chips, WD: stage WD
How it was run: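 Microarray v2 (866 human + 89 viral miRNAs; miRBase v.12.0). Input: RNA from the same donors as sequencing. Labelling/hybridization per kit protocol. Profiles cross-checked vs sequencing.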

[2] = tested on: basal cells and pyramidal cells of the airway epithelium; test: miRNA expression in sorted basal cells versus pyramidal cells (ciliated + secretory), HTS and Agilent chips; parameters: species or system human; conditions: for Modulation of expression of the miRNAs in pyramidal cells (323(−)) relative to basal cells 323(+): HTS and Agilent chips; for Intensity of the level of expression in log2 in pyramidal cells (323(−)): pyramidal cells (ciliated + secretory)
How it was run: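 FACS on CD151 and tissue factor: double-positive = basal, double-negative = ciliated + mucus cells; DAPI, doublets, aggregates excluded; sort at 5000 events/s. Purity checked by cytometry/immunocytochemistry. miRNA by Agilent array or HTS on total RNA. Source: nasal polyps/conchae, 3 donors.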

[3] = tested on: human airway epithelial cells (HAECs); test: High-throughput sequencing (HTS) of miRNAs at four stages of differentiation of HAECs; conditions: for Modulation (ratio of the level of intensity of expression in log2 in two stages of differentiation) measured by high-throughput sequencing, D7 − D0 / Modulation (ratio of the level of intensity of expression in log2 in two stages of differentiation) measured by high-throughput sequencing, FC − D7 / Modulation (ratio of the level of intensity of expression in log2 in two stages of differentiation) measured by high-throughput sequencing, WD − D0 / Modulation (ratio of the level of intensity of expression in log2 in two stages of differentiation) measured by high-throughput sequencing, WD − FC / Level of intensity of expression in log2 measured by high-throughput sequencing, D0 / Level of intensity of expression in log2 measured by high-throughput sequencing, D7 / Level of intensity of expression in log2 measured by high-throughput sequencing, FC / Level of intensity of expression in log2 measured by high-throughput sequencing, WD: Table VI; for Level of intensity of expression in log2 At the differentiated stage (WD) measured in HTS: healthy human airway epithelial tissue; for Level of intensity of expression in log2 measured by high-throughput sequencing, D0: stage D0; for Level of intensity of expression in log2 measured by high-throughput sequencing, D7: stage D7; for Level of intensity of expression in log2 measured by high-throughput sequencing, FC: stage FC; for Level of intensity of expression in log2 At the differentiated stage (WD) measured in HTS / Level of intensity of expression in log2 measured by high-throughput sequencing, WD: stage WD; for Modulation (ratio of the level of intensity of expression in log2 in two stages of differentiation), D7 − D0 / Modulation (ratio of the level of intensity of expression in log2 in two stages of differentiation), FC − D7 / Modulation (ratio of the level of intensity of expression in log2 in two stages of differentiation), WD − FC / Abundance (%), D0 / Abundance (%), D7 / Abundance (%), FC / Abundance (%), WD: HTS; for Abundance (%), D0: ALI-D0; for Abundance (%), D7: ALI-D7; for Abundance (%), FC: ALI-FC; for Abundance (%), WD: ALI-WD
How it was run: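 ALI cultures sampled at day 0, day 7, first-cilia stage (~14 d) and full differentiation (~21 d). Trizol lysis, column purification retaining small RNAs. Adaptor ligation, RT at 42° C for 30 min, PCR, gel selection of ~105-150 base products.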

Substance | Modulation (ratio of the level of intensity of expression in log2 in two stages of differentiation) measured with the Agilent chips, D7 − D0 [1] | Modulation (ratio of the level of intensity of expression in log2 in two stages of differentiation) measured with the Agilent chips, FC − D7 [1] | Modulation (ratio of the level of intensity of expression in log2 in two stages of differentiation) measured with the Agilent chips, WD − D0 [1] | Modulation (ratio of the level of intensity of expression in log2 in two stages of differentiation) measured with the Agilent chips, WD − FC [1] | Level of intensity of expression in log2 measured with the Agilent chips, D0 [1] | Level of intensity of expression in log2 measured with the Agilent chips, D7 [1] | Level of intensity of expression in log2 measured with the Agilent chips, FC [1] | Level of intensity of expression in log2 measured with the Agilent chips, WD [1] | Modulation of expression of the miRNAs in pyramidal cells (323(−)) relative to basal cells 323(+) [2] | Intensity of the level of expression in log2 in basal cells (323(+)) [2] | Intensity of the level of expression in log2 in pyramidal cells (323(−)) [2] | Modulation (ratio of the level of intensity of expression in log2 in two stages of differentiation) measured by high-throughput sequencing, D7 − D0 [3] | Modulation (ratio of the level of intensity of expression in log2 in two stages of differentiation) measured by high-throughput sequencing, FC − D7 [3] | Modulation (ratio of the level of intensity of expression in log2 in two stages of differentiation) measured by high-throughput sequencing, WD − D0 [3] | Modulation (ratio of the level of intensity of expression in log2 in two stages of differentiation) measured by high-throughput sequencing, WD − FC [3] | Level of intensity of expression in log2 At the differentiated stage (WD) measured in HTS [3] | Level of intensity of expression in log2 measured by high-throughput sequencing, D0 [3] | Level of intensity of expression in log2 measured by high-throughput sequencing, D7 [3] | Level of intensity of expression in log2 measured by high-throughput sequencing, FC [3] | Level of intensity of expression in log2 measured by high-throughput sequencing, WD [3] | also measured
hsa-miR-148a: human miRNA, SEQ ID No. 7 (UCAGUGCACUACAGAACUUUGU; expressed or natural sequence; listed as Homo sapiens) | 2.06 log2 | −0.50 log2 | 1.60 log2 | 0.04 log2 | 7.35 log2 | 9.41 log2 | 8.91 log2 | 8.95 log2 | −1.76 | 7.14 log2 | 5.39 log2 | 1.31 log2 | −0.28 log2 | 1.93 log2 | 0.91 log2 | 8.97 log2 | 7.04 log2 | 8.34 log2 | 8.06 log2 | 8.97 log2 | Modulation (ratio of the level of intensity of expression in log2 at two stages of differentiation), FC − D7 [1]: −0.50 log2; Modulation (ratio of the level of intensity of expression in log2 at two stages of differentiation), WD − FC [1]: 0.04 log2
hsa-miR-191: human miRNA, SEQ ID No. 13 (CAACGGAAUCCCAAAAGCAGCUG; expressed or natural sequence; listed as Homo sapiens) | 2.32 log2 | 0.29 log2 | 2.31 log2 | −0.30 log2 | 0.64 log2 | 2.97 log2 | 3.25 log2 | 2.95 log2 | 0.00 | 0.14 log2 | 0.14 log2 | 0.90 log2 | 0.84 log2 | 2.15 log2 | 0.42 log2 | 16.82 log2 | 14.67 log2 | 15.57 log2 | 16.40 log2 | 16.82 log2 | Modulation (ratio of the level of intensity of expression in log2 in two stages of differentiation), D7 − D0 [3]: 0.90 log2; Modulation (ratio of the level of intensity of expression in log2 in two stages of differentiation), FC − D7 [3]: 0.84 log2; Modulation (ratio of the level of intensity of expression in log2 in two stages of differentiation), WD − FC [3]: 0.42 log2; Abundance (%), D0 [3]: 5.71%; Abundance (%), D7 [3]: 10.68%; Abundance (%), FC [3]: 18.46%; Abundance (%), WD [3]: 18.69%
hsa-miR-193b: human miRNA, SEQ ID No. 14 (AACUGGCCCUCAAAGUCCCGCU; expressed or natural sequence; listed as Homo sapiens) | −0.67 log2 | −1.19 log2 | −1.93 log2 | −0.07 log2 | 8.62 log2 | 7.95 log2 | 6.76 log2 | 6.69 log2 | −3.57 | 3.90 log2 | 0.33 log2 | −1.17 log2 | −0.90 log2 | −1.60 log2 | 0.48 log2 | 11.67 log2 | 13.26 log2 | 12.09 log2 | 11.19 log2 | 11.67 log2 | Modulation (ratio of the level of intensity of expression in log2 at two stages of differentiation), FC − D7 [1]: −1.19 log2; Modulation (ratio of the level of intensity of expression in log2 at two stages of differentiation), WD − FC [1]: −0.07 log2; cell type in which the miRNA is specifically expressed ([2]; sorted ciliated/pyramidal versus basal cells): more specific to the basal cells; Modulation (ratio of the level of intensity of expression in log2 in two stages of differentiation), D7 − D0 [3]: −1.17 log2; Modulation (ratio of the level of intensity of expression in log2 in two stages of differentiation), FC − D7 [3]: −0.90 log2; Modulation (ratio of the level of intensity of expression in log2 in two stages of differentiation), WD − FC [3]: 0.48 log2; Abundance (%), D0 [3]: 2.16%; Abundance (%), D7 [3]: 0.96%; Abundance (%), FC [3]: 0.50%; Abundance (%), WD [3]: 0.52%
hsa-miR-26a: human miRNA, SEQ ID No. 28 (UUCAAGUAAUCCAGGAUAGGCU; expressed or natural sequence; listed as Homo sapiens) | 2.20 log2 | −0.11 log2 | 2.15 log2 | 0.06 log2 | 8.50 log2 | 10.70 log2 | 10.59 log2 | 10.65 log2 | −2.24 | 9.92 log2 | 7.68 log2 | 1.31 log2 | −0.98 log2 | 3.22 log2 | 2.90 log2 | 7.75 log2 | 0.30 log2 | 1.61 log2 | 0.62 log2 | 3.52 log2 | Modulation (ratio of the level of intensity of expression in log2 at two stages of differentiation), FC − D7 [1]: −0.11 log2; Modulation (ratio of the level of intensity of expression in log2 at two stages of differentiation), WD − FC [1]: 0.06 log2
